# According to patent publication US20210363213A1, “GLUCAGON-GLP-1-GIP TRIPLE AGONIST COMPOUNDS” (priority 2013, published 2021):
# Numbered stars: 1 amine (or outer) side, 2 acyl side, 3 side chain; on linkers, the order of the positions; unused ones are H or OH. Square brackets hold non-standard residues; d marks the D form. Side chains are listed from the residue outwards. Peptide text beside a SMILES is read from it. * marks the point of attachment. γGlu = O=C(O)[C@H](CCC(=O)[*:2])N[*:1]; Stearoyl = CCCCCCCCCCCCCCCCCC(=O)*; AEEA = NCCOCCOCC(=O)O; Aib = CC(C)(N)C(=O)O
# Biological target: T1, human GIP R (Homo sapiens, UniProt P48546)
# T1 construct: expressed in transfected cells
# T1 sequence (P48546 22-466): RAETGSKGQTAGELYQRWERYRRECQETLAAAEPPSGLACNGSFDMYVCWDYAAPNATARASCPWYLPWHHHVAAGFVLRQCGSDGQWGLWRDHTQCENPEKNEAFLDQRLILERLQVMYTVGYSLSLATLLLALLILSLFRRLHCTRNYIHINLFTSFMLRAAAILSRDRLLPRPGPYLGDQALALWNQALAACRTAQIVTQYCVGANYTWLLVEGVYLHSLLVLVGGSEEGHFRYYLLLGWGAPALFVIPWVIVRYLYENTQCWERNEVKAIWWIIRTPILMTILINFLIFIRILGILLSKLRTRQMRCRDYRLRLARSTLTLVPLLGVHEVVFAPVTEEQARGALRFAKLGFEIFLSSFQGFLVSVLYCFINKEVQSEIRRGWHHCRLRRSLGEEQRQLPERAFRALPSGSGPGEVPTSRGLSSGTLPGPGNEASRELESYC
# Experiment: Human GIP receptor (GIP-R) activity assay, cAMP induction (AlphaScreen) in HEK293 cells
# Type: cell-based
# Conditions: Table 2b (most comprehensive data); average EC50; cAMP in HEK293 cells expressing human GIP R; read-out: GIP R (EC50 in nM)
# Description: (§1) Briefly, HEK293 cells expressing the human GIP R, GLP-1 R or GCG R (stable cell lines generated through transfection of the cDNA for human GIP R, GLP-1 R or GCG R and selection of stable clones) were seeded at 30,000 cells/well in 96-well microtiter plates coated with 0.01% poly-L-lysine, and grown for 1 day in culture in 200 μl growth medium (DMEM, 10% FCS, Penicillin (100 IU/ml), Streptomycin (100 μg/ml)). On the day of analysis, growth medium was removed and the cells were washed once with 150 μl Tyrode's buffer (Tyrode's Salts (9.6 g/I), 10 mM HEPES, pH 7.4). […] The Assay buffer was removed and cells are lysed in 80 μl Lysis buffer (0.1% w/v BSA, 5 mM HEPES, 0.3% v/v Tween-20) per well. From each well 10 μl of lysed cells were transferred to a 384-well plate and mixed with 15 μl bead-mix (1 Unit/15 μl anti-cAMP Acceptor Beads, 1 Unit/15 μl Donor Beads, and 1 Unit/15 μl Biotinylated cAMP in Assay Buffer). The plates were mixed and incubated in the dark for an hour at room temperature before measuring using an Envision™ plate reader (Perkin-Elmer).
# (§2) The resulting cAMP curves were plotted as absolute cAMP concentrations (nM) over log (test compound concentration) and analyzed using the curve fitting program XLfit.
# (§3) Parameters calculated to describe both the potency as well as the agonistic activity of each test compound on the receptors were:
# (§4) EC50, a concentration resulting in a half-maximal elevation of cAMP levels, reflecting the potency of the test compound.
row,Compound,EC50 [nM]
1,"CCCCCCCCCCCCCCCC(=O)N[C@@H](CCC(=O)NCCCC[C@H](NC(=O)[C@H](CO)NC(=O)[C@H](CC(=O)O)NC(=O)[C@H](CC(C)C)NC(=O)[C@H](Cc1ccc(O)cc1)NC(=O)[C@@H](NC(=O)[C@H](CO)NC(=O)[C@H](Cc1ccc(O)cc1)NC(=O)[C@H](CC(=O)O)NC(=O)[C@H](CO)NC(=O)[C@@H](NC(=O)[C@H](Cc1ccccc1)NC(=O)[C@@H](NC(=O)CNC(=O)[C@H](CCC(N)=O)NC(=O)C(C)(C)NC(=O)[C@@H](N)Cc1ccc(O)cc1)[C@@H](C)O)[C@@H](C)O)[C@@H](C)CC)C(=O)N[C@@H](C)C(=O)N[C@@H](C)C(=O)N[C@@H](Cc1c[nH]cn1)C(=O)N[C@@H](CC(=O)O)C(=O)N[C@@H](Cc1ccccc1)C(=O)N[C@H](C(=O)N[C@@H](CCC(=O)O)C(=O)N[C@@H](Cc1c[nH]c2ccccc12)C(=O)N[C@@H](CC(C)C)C(=O)N[C@@H](CC(C)C)C(=O)N[C@@H](CO)C(=O)N[C@@H](C)C(=O)NCC(=O)N1CCC[C@H]1C(=O)N[C@@H](CO)C(=O)N[C@@H](CO)C(=O)NCC(=O)N[C@@H](C)C(=O)N1CCC[C@H]1C(=O)N1CCC[C@H]1C(=O)N1CCC[C@H]1C(=O)N[C@@H](CO)C(N)=O)C(C)C)C(=O)O [Compound 29] (HELM PEPTIDE1{Y.[Aib].Q.G.T.F.T.S.D.Y.S.I.Y.L.D.S.K.A.A.H.D.F.V.E.W.L.L.S.A.G.P.S.S.G.A.P.P.P.S.[am]}|PEPTIDE2{[CCCCCCCCCCCCCCCC(=O)[*:2]].[gGlu]}$PEPTIDE1,PEPTIDE2,17:R3-2:R2$$$V2.0)",0.064
2,"CCCCCCCCCCCCCCCC(=O)N[C@@H](CCC(=O)NCCCC[C@H](NC(=O)[C@H](CCCCN)NC(=O)[C@H](CCC(=O)O)NC(=O)[C@H](CC(C)C)NC(=O)[C@H](Cc1ccc(O)cc1)NC(=O)[C@@H](NC(=O)[C@H](CO)NC(=O)[C@H](Cc1ccc(O)cc1)NC(=O)[C@H](CC(=O)O)NC(=O)[C@H](CO)NC(=O)[C@@H](NC(=O)[C@H](Cc1ccccc1)NC(=O)[C@@H](NC(=O)CNC(=O)[C@H](CCC(N)=O)NC(=O)C(C)(C)NC(=O)[C@@H](N)Cc1ccc(O)cc1)[C@@H](C)O)[C@@H](C)O)[C@@H](C)CC)C(=O)N[C@@H](C)C(=O)N[C@@H](C)C(=O)N[C@@H](CCCCN)C(=O)N[C@@H](CCC(=O)O)C(=O)N[C@@H](Cc1ccccc1)C(=O)N[C@H](C(=O)N[C@@H](CCC(=O)O)C(=O)N[C@@H](Cc1c[nH]c2ccccc12)C(=O)N[C@@H](CC(C)C)C(=O)N[C@@H](CC(C)C)C(=O)N[C@@H](CO)C(=O)N[C@@H](C)C(=O)NCC(=O)N1CCC[C@H]1C(=O)N[C@@H](CO)C(=O)N[C@@H](CO)C(=O)NCC(=O)N[C@@H](C)C(=O)N1CCC[C@H]1C(=O)N1CCC[C@H]1C(=O)N1CCC[C@H]1C(=O)N[C@@H](CO)C(N)=O)C(C)C)C(=O)O [Compound 32] (HELM PEPTIDE1{Y.[Aib].Q.G.T.F.T.S.D.Y.S.I.Y.L.E.K.K.A.A.K.E.F.V.E.W.L.L.S.A.G.P.S.S.G.A.P.P.P.S.[am]}|PEPTIDE2{[CCCCCCCCCCCCCCCC(=O)[*:2]].[gGlu]}$PEPTIDE1,PEPTIDE2,17:R3-2:R2$$$V2.0)",0.04

# Biological target: T2, human GLP-1 R (Homo sapiens, UniProt P43220)
# T2 construct: expressed in transfected cells
# Experiment: Human GLP-1 receptor (GLP-1-R) activity assay, cAMP induction (AlphaScreen) in HEK293 cells
# Type: cell-based
# Conditions: Table 2b (most comprehensive data); average EC50; cAMP in HEK293 cells expressing human GLP-1 R; read-out: GLP1 R (EC50 in nM)
# Description: as §1, §2, §3, §4
# T2 sequence (P43220 24-463): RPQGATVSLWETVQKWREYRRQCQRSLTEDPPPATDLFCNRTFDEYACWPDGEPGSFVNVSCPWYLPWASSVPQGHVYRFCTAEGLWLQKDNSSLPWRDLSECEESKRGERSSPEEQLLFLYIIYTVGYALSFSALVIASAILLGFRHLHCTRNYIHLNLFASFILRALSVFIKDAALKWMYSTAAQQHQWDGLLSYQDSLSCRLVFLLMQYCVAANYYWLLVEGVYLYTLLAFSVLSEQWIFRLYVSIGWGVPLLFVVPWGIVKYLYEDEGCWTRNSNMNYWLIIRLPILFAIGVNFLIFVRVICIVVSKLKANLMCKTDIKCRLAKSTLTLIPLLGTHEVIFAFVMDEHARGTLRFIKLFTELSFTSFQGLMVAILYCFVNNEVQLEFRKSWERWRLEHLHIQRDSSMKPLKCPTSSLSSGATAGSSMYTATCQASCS
row,Compound,EC50 [nM]
1,CC[C@H](C)[C@H](NC(=O)[C@H](CO)NC(=O)[C@H](Cc1ccc(O)cc1)NC(=O)[C@H](CC(=O)O)NC(=O)[C@H](CO)NC(=O)[C@@H](NC(=O)[C@H](Cc1ccccc1)NC(=O)[C@@H](NC(=O)CNC(=O)[C@H](CCC(N)=O)NC(=O)C(C)(C)NC(=O)[C@@H](N)Cc1ccc(O)cc1)[C@@H](C)O)[C@@H](C)O)C(=O)N[C@@H](Cc1ccc(O)cc1)C(=O)N[C@@H](CC(C)C)C(=O)N[C@@H](CC(=O)O)C(=O)N[C@@H](CCC(=O)O)C(=O)N[C@@H](CCCCN)C(=O)N[C@@H](C)C(=O)N[C@@H](C)C(=O)N[C@@H](CCCCN)C(=O)N[C@@H](CC(=O)O)C(=O)N[C@@H](Cc1ccccc1)C(=O)N[C@H](C(=O)N[C@@H](CCC(=O)O)C(=O)N[C@@H](Cc1c[nH]c2ccccc12)C(=O)N[C@@H](CC(C)C)C(=O)N[C@@H](CC(C)C)C(=O)N[C@@H](CO)C(=O)N[C@@H](C)C(N)=O)C(C)C [Compound 17] (HELM PEPTIDE1{Y.[Aib].Q.G.T.F.T.S.D.Y.S.I.Y.L.D.E.K.A.A.K.D.F.V.E.W.L.L.S.A.[am]}$$$$V2.0),0.013
2,CC(C)C[C@H](NC(=O)[C@H](C)NC(=O)[C@H](CCCCN)NC(=O)[C@H](CO)NC(=O)[C@H](Cc1ccc(O)cc1)NC(=O)[C@H](CC(=O)O)NC(=O)[C@H](CO)NC(=O)[C@@H](NC(=O)[C@H](Cc1ccccc1)NC(=O)[C@@H](NC(=O)CNC(=O)[C@H](CCC(N)=O)NC(=O)C(C)(C)NC(=O)[C@@H](N)Cc1ccc(O)cc1)[C@@H](C)O)[C@@H](C)O)C(=O)N[C@@H](CC(=O)O)C(=O)N[C@@H](CCC(=O)O)C(=O)N[C@@H](CCCCN)C(=O)N[C@@H](C)C(=O)N[C@@H](C)C(=O)N[C@@H](CCCCN)C(=O)N[C@@H](CCC(=O)O)C(=O)N[C@@H](Cc1ccccc1)C(=O)N[C@H](C(=O)N[C@@H](CCC(=O)O)C(=O)N[C@@H](Cc1c[nH]c2ccccc12)C(=O)N[C@@H](CC(C)C)C(=O)N[C@@H](CC(C)C)C(=O)N[C@@H](CO)C(=O)N[C@@H](C)C(N)=O)C(C)C [Compound 21] (HELM PEPTIDE1{Y.[Aib].Q.G.T.F.T.S.D.Y.S.K.A.L.D.E.K.A.A.K.E.F.V.E.W.L.L.S.A.[am]}$$$$V2.0),0.015
3,CC(C)C[C@H](NC(=O)[C@H](CC(C)C)NC(=O)[C@H](Cc1c[nH]c2ccccc12)NC(=O)[C@H](CCC(=O)O)NC(=O)[C@@H](NC(=O)[C@H](Cc1ccccc1)NC(=O)[C@H](CCC(=O)O)NC(=O)[C@H](CCCCN)NC(=O)[C@H](CCC(N)=O)NC(=O)[C@H](C)NC(=O)[C@H](CCCCN)NC(=O)[C@H](CCCCN)NC(=O)[C@H](CCC(=O)O)NC(=O)[C@H](CC(C)C)NC(=O)[C@H](Cc1ccc(O)cc1)NC(=O)[C@H](CCCCN)NC(=O)[C@H](CO)NC(=O)[C@H](Cc1ccc(O)cc1)NC(=O)[C@H](CC(=O)O)NC(=O)[C@H](CO)NC(=O)[C@@H](NC(=O)[C@H](Cc1ccccc1)NC(=O)[C@@H](NC(=O)CNC(=O)[C@H](CCC(N)=O)NC(=O)C(C)(C)NC(=O)[C@@H](N)Cc1ccc(O)cc1)[C@@H](C)O)[C@@H](C)O)C(C)C)C(=O)N[C@@H](CO)C(=O)N[C@@H](C)C(N)=O [Compound 22] (HELM PEPTIDE1{Y.[Aib].Q.G.T.F.T.S.D.Y.S.K.Y.L.E.K.K.A.Q.K.E.F.V.E.W.L.L.S.A.[am]}$$$$V2.0),0.03
4,"CCCCCCCCCCCCCCCC(=O)N[C@@H](CCC(=O)NCCCC[C@H](NC(=O)[C@H](CCC(=O)O)NC(=O)[C@H](CC(C)C)NC(=O)[C@H](Cc1ccc(O)cc1)NC(=O)[C@@H](NC(=O)[C@H](CO)NC(=O)[C@H](Cc1ccc(O)cc1)NC(=O)[C@H](CC(=O)O)NC(=O)[C@H](CO)NC(=O)[C@@H](NC(=O)[C@H](Cc1ccccc1)NC(=O)[C@@H](NC(=O)CNC(=O)[C@H](CCC(N)=O)NC(=O)C(C)(C)NC(=O)[C@@H](N)Cc1ccc(O)cc1)[C@@H](C)O)[C@@H](C)O)[C@@H](C)CC)C(=O)N[C@@H](CCCCN)C(=O)N[C@@H](C)C(=O)N[C@@H](C)C(=O)N[C@@H](CCCCN)C(=O)N[C@@H](CCC(=O)O)C(=O)N[C@@H](Cc1ccccc1)C(=O)N[C@H](C(=O)N[C@@H](CCC(=O)O)C(=O)N[C@@H](Cc1c[nH]c2ccccc12)C(=O)N[C@@H](CC(C)C)C(=O)N[C@@H](CC(C)C)C(=O)N[C@@H](CO)C(=O)N[C@@H](C)C(N)=O)C(C)C)C(=O)O [Compound 24] (HELM PEPTIDE1{Y.[Aib].Q.G.T.F.T.S.D.Y.S.I.Y.L.E.K.K.A.A.K.E.F.V.E.W.L.L.S.A.[am]}|PEPTIDE2{[CCCCCCCCCCCCCCCC(=O)[*:2]].[gGlu]}$PEPTIDE1,PEPTIDE2,16:R3-2:R2$$$V2.0)",0.11
5,CCCCCCCCCCCCCCCCCC(=O)N[C@@H](CCC(=O)NCCOCCOCC(=O)NCCOCCOCC(=O)NCCCC[C@H](NC(=O)[C@H](CCCCN)NC(=O)[C@H](CCC(=O)O)NC(=O)[C@H](CC(C)C)NC(=O)[C@H](C)NC(=O)[C@@H](NC(=O)[C@H](CO)NC(=O)[C@H](Cc1ccc(O)cc1)NC(=O)[C@H](CC(=O)O)NC(=O)[C@H](CO)NC(=O)[C@@H](NC(=O)[C@H](Cc1ccccc1)NC(=O)[C@@H](NC(=O)CNC(=O)[C@H](CCC(N)=O)NC(=O)C(C)(C)NC(=O)[C@@H](N)Cc1ccc(O)cc1)[C@@H](C)O)[C@@H](C)O)[C@@H](C)CC)C(=O)N[C@@H](C)C(=O)N[C@@H](CCC(N)=O)C(=O)N[C@@H](CCCNC(=N)N)C(=O)N[C@@H](C)C(=O)N[C@@H](Cc1ccccc1)C(=O)N[C@H](C(=O)N[C@@H](CCC(=O)O)C(=O)N[C@@H](Cc1c[nH]c2ccccc12)C(=O)N[C@@H](CC(C)C)C(=O)N[C@@H](CC(C)C)C(=O)N[C@@H](C)C(=O)N[C@@H](CCC(N)=O)C(=O)N[C@@H](CCCCN)C(N)=O)C(C)C)C(=O)O [Compound 46] (H-Y[Aib]QGTFTSDYSIALEKK([AEEA-AEEA-γGlu-Stearoyl])AQRAFVEWLLAQK-NH2),0.016
